The assay has as its target T1, Recombinant human His-tagged Trim24-PHD-bromodomain (Homo sapiens, UniProt O15164).
T1 construct: Recombinant human His-tagged Trim24-PHD-bromodomain (produced in-house); made in house
T1 sequence (O15164 824-1006 limits assumed): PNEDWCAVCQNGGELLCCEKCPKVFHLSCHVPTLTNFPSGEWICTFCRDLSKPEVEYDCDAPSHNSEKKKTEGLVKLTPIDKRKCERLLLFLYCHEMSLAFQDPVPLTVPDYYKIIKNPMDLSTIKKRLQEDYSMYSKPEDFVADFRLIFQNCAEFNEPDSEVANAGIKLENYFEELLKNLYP
The experiment in a line: Trim24 AlphaScreen Assay. Particulars: 5 nM Trim24 protein, 15 nM biotinylated H3K23ac (1-33aa) peptide. It counts as binding. The method, then: Recombinant human His-tagged Trim24-PHD-bromodomain (produced in-house), biotinylated H3K23ac (1-33aa) peptide (AnaSpec, Inc.), and test compound were added to a 384-well OptiPlate (Perkin Elmer) and incubated at room temperature for one hour. The assay buffer consisted of 50 mM Hepes, pH 7.5, 100 mM NaCl, and 0.12 mM Triton X-100.
Streptavidin donor beads and nickel chelate acceptor beads, both from a Perkin Elmer AlphaScreen Histidine Detection Kit, were then added to the Optiplate to a final concentration of 10 ug/mL each. Following a 2 hour incubation at room temperature, the microplate was read on an Envision Plate Reader (Perkin Elmer). Percent of control (POC) values were calculated from the following formula:
POC=[sample signal-average background signal]/[average maximum signal−average background signal]*100
The average maximum signal was obtained from wells containing all assay components except test compound. The average background signal pertained to wells with all assay components except Trim24 and test compound. IC50 values were calculated using a four-parameter logistic curve fit.
Consider `COc1ccc(S(=O)(=O)Nc2cc3c(cc2Oc2cccc(OCc4ccccc4)c2)n(C)c(=O)n3C)cc1OC` [Example 1, N-(6-(3-(benzyloxy)phenoxy)-1,3-dimethyl-2-oxo-2,3-dihydro-1H-benzo[d]imidazol-5-yl)-3,4-dimethoxybenzenesulfonamide], for which the half-maximal inhibitory concentration (IC50) (usually the concentration needed to halve the response being measured) fell in the range of 0.1 to 1 µM.

For the compound `Cc1n[nH]c(C)c1S(=O)(=O)Nc1cc2c(cc1Oc1cccc(OCc3ccccc3)c1)n(C)c(=O)n2C` [Example 2, N-(6-(3-(benzyloxy)phenoxy)-1,3-dimethyl-2-oxo-2,3-dihydro-1H-benzo[d]imidazol-5-yl)-3,5-dimethyl-1H-pyrazole-4-sulfonamide], the IC50 is 0.1 to 1 µM.

Consider `Cn1cnc(S(=O)(=O)Nc2cc3c(cc2Oc2cccc(OCc4ccc(Cl)nc4)c2)n(C)c(=O)n3C)c1` [Example 3, N-(6-(3-((6-chloropyridin-3-yl)methoxy)phenoxy)-1,3-dimethyl-2-oxo-2,3-dihydro-1H-benzo[d]imidazol-5-yl)-1-methyl-1H-imidazole-4-sulfonamide], for which the IC50 is over 1 µM.

On to `Cc1nc(S(=O)(=O)Nc2cc3c(cc2Oc2cccc(OCCC(C)C)c2)n(C)c(=O)n3C)cn1C` [Example 4, N-(6-(3-(isopentyloxy)phenoxy)-1,3-dimethyl-2-oxo-2,3-dihydro-1H-benzo[d]imidazol-5-yl)-1,2-dimethyl-1H-imidazole-4-sulfonamide], for which the half-maximal inhibitory concentration (IC50) fell in the range of 0.1 to 1 µM.

With `Cn1cnc(S(=O)(=O)Nc2cc3c(cc2Oc2cccc(OCCCCN)c2)n(C)c(=O)n3C)c1` [Example 5, N-(6-(3-(4-aminobutoxy)phenoxy)-1,3-dimethyl-2-oxo-2,3-dihydro-1H-benzo[d]imidazol-5-yl)-1-methyl-1H-imidazole-4-sulfonamide], the IC50 is 0.1 to 1 µM.

Take `CCOc1cccc(Oc2cc3c(cc2NS(=O)(=O)c2cn(C)c(C)n2)n(C)c(=O)n3C)c1` [Example 6, N-(6-(3-ethoxyphenoxy)-1,3-dimethyl-2-oxo-2,3-dihydro-1H-benzo[d]imidazol-5-yl)-1,2-dimethyl-1H-imidazole-4-sulfonamide]: the IC50 fell in the range of 0.1 to 1 µM.

As to `CCCOc1cc(OCCCCCCN)cc(Oc2cc3c(cc2NS(=O)(=O)c2ccc(OC)c(OC)c2)n(C)c(=O)n3C)c1` [Example 7, N-(6-{3-[(6-aminohexyl)oxy]-5-propoxyphenoxy}-1,3-dimethyl-2-oxo-2,3-dihydro-1H-1,3-benzodiazol-5-yl)-3,4-dimethoxybenzene-1-sulfonamide], the concentration for half-maximal inhibition (IC50) was in the range of 0.01 to 0.1 µM.

Regarding `CN(C)CCCCOc1cccc(Oc2cc3c(cc2NS(=O)(=O)c2cn(C)cn2)n(C)c(=O)n3C)c1` [Example 9, N-(6-(3-(4-(dimethylamino)butoxy)phenoxy)-1,3-dimethyl-2-oxo-2,3-dihydro-1H-benzo[d]imidazol-5-yl)-1-methyl-1H-imidazole-4-sulfonamide 2,2,2-trifluoroacetate], the concentration for half-maximal inhibition (IC50) was over 1 µM.

Take `Cn1c(=O)n(C)c2cc(Oc3cccc(OCc4ccccc4)c3)c(NS(C)(=O)=O)cc21` [Example 11]: the IC50 is over 1 µM.

Regarding `Cn1c(=O)n(C)c2cc(Oc3cccc(OCc4ccccc4)c3)c(NS(=O)(=O)C3CC3)cc21` [Example 12, N-(6-(3-(benzyloxy)phenoxy)-1,3-dimethyl-2-oxo-2,3-dihydro-1H-benzo[d]imidazol-5-yl)cyclopropanesulfonamide], the IC50 was over 1 µM.

As to `Cn1c(=O)n(C)c2cc(Oc3cccc(OCc4ccccc4)c3)c(NS(=O)(=O)c3ccccc3)cc21` [Example 13, N-(6-(3-(benzyloxy)phenoxy)-1,3-dimethyl-2-oxo-2,3-dihydro-1H-benzo[d]imidazol-5-yl)benzenesulfonamide], the IC50 is over 1 µM.

With `Cn1c(=O)n(C)c2cc(Oc3cccc(OCc4ccccc4)c3)c(NS(=O)(=O)c3cccnc3)cc21` [Example 14, N-(6-(3-(benzyloxy)phenoxy)-1,3-dimethyl-2-oxo-2,3-dihydro-1H-benzo[d]imidazol-5-yl)pyridine-3-sulfonamide], the IC50 is 0.1 to 1 µM.

Consider `Cn1c(=O)n(C)c2cc(Oc3cccc(OCc4ccccc4)c3)c(NS(=O)(=O)c3ccc(F)cc3)cc21` [Example 15], for which the IC50 was over 1 µM.

For `CC(C)COc1ccc(S(=O)(=O)Nc2cc3c(cc2Oc2cccc(OCc4ccccc4)c2)n(C)c(=O)n3C)cc1` [Example 16, N-(6-(3-(benzyloxy)phenoxy)-1,3-dimethyl-2-oxo-2,3-dihydro-1H-benzo[d]imidazol-5-yl)-4-isobutoxybenzenesulfonamide], the half-inhibitory concentration (IC50) was over 1 µM.

Take `COc1ccc(S(=O)(=O)Nc2cc3c(cc2Oc2cccc(OCc4ccccc4)c2)n(C)c(=O)n3C)cc1` [Example 17, N-(6-(3-(benzyloxy)phenoxy)-1,3-dimethyl-2-oxo-2,3-dihydro-1H-benzo[d]imidazol-5-yl)-4-methoxybenzenesulfonamide]: the IC50 lay in the range of 0.1 to 1 µM.

As to `COc1cccc(S(=O)(=O)Nc2cc3c(cc2Oc2cccc(OCc4ccccc4)c2)n(C)c(=O)n3C)c1` [Example 18, N-(6-(3-(benzyloxy)phenoxy)-1,3-dimethyl-2-oxo-2,3-ddihydro-1H-benzo[d]imidazol-5-yl)-3-methoxybenzenesulfonamide], the IC50 was in the range of 0.1 to 1 µM.

In the case of `COc1ccc(S(=O)(=O)Nc2cc3c(cc2Oc2cccc(OCc4ccc(Cl)nc4)c2)n(C)c(=O)n3C)cc1OC` [Example 20, N-(6-(3-((6-chloropyridin-3-yl)methoxy)phenoxy)-1,3-dimethyl-2-oxo-2,3-dihydro-1H-benzo[d]imidazol-5-yl)-3,4-dimethoxybenzenesulfonamide], the IC50 was over 1 µM.

As to `Cn1c(=O)n(C)c2cc(Oc3cccc(OCc4ccccc4)c3)c(NS(=O)(=O)c3ccsc3)cc21` [Example 21, N-(6-(3-(benzyloxy)phenoxy)-1,3-dimethyl-2-oxo-2,3-dihydro-1H-benzo[d]imidazol-5-yl)thiophene-3-sulfonamide], the IC50 is over 1 µM.

For `Cn1c(=O)n(C)c2cc(Oc3cccc(OCc4ccccc4)c3)c(NS(=O)(=O)c3nnc[nH]3)cc21` [Example 22, N-(6-(3-(benzyloxy)phenoxy)-1,3-dimethyl-2-oxo-2,3-dihydro-1H-benzo[d]imidazol-5-yl)-4H-1,2,4-triazole-3-sulfonamide], the half-inhibitory concentration (IC50) fell in the range of 0.1 to 1 µM.

As to `Cc1nn(C)cc1S(=O)(=O)Nc1cc2c(cc1Oc1cccc(OCc3ccccc3)c1)n(C)c(=O)n2C` [Example 23, N-(6-(3-(benzyloxy)phenoxy)-1,3-dimethyl-2-oxo-2,3-dihydro-1H-benzo[d]imidazol-5-yl)-1,3-dimethyl-1H-pyrazole-4-sulfonamide], the IC50 is 0.1 to 1 µM.

With `Cc1ccsc1S(=O)(=O)Nc1cc2c(cc1Oc1cccc(OCc3ccccc3)c1)n(C)c(=O)n2C` [Example 24, N-(6-(3-(benzyloxy)phenoxy)-1,3-dimethyl-2-oxo-2,3-dihydro-1H-benzo[d]imidazol-5-yl)-3-methylthiophene-2-sulfonamide], the IC50 is over 1 µM.

With `Cn1cc(S(=O)(=O)Nc2cc3c(cc2Oc2cccc(OCc4ccccc4)c2)n(C)c(=O)n3C)cn1` [Example 25, N-(6-(3-(benzyloxy)phenoxy)-1,3-dimethyl-2-oxo-2,3-dihydro-1H-benzo[d]imidazol-5-yl)-1-methyl-1H-pyrazole-4-sulfonamide], the IC50 is 0.1 to 1 µM.

As for `Cc1nc(S(=O)(=O)Nc2cc3c(cc2Oc2cccc(OCc4ccccc4)c2)n(C)c(=O)n3C)cn1C` [Example 26, N-(6-(3-(benzyloxy)phenoxy)-1,3-dimethyl-2-oxo-2,3-dihydro-1H-benzo[d]imidazol-5-yl)-1,2-dimethyl-1H-imidazole-4-sulfonamide], the 50% inhibitory concentration (IC50) was in the range of 0.1 to 1 µM.

Consider `COCCS(=O)(=O)Nc1cc2c(cc1Oc1cccc(OCc3ccccc3)c1)n(C)c(=O)n2C` [Example 27, N-(6-(3-(benzyloxy)phenoxy)-1,3-dimethyl-2-oxo-2,3-dihydro-1H-benzo[d]imidazol-5-yl)-2-methoxyethane-1-sulfonamide], for which the IC50 is over 1 µM.

With `Cn1cnc(S(=O)(=O)Nc2cc3c(cc2Oc2cccc(OCc4ccccn4)c2)n(C)c(=O)n3C)c1` [Example 28, N-(1,3-dimethyl-2-oxo-6-(3-(pyridin-2-ylmethoxy)phenoxy)-2,3-dihydro-1H-benzo[d]imidazol-5-yl)-1-methyl-1H-imidazole-4-sulfonamide], the IC50 was 0.1 to 1 µM.

As for `COc1ccc(S(=O)(=O)Nc2cc3c(cc2Oc2cccc(OCc4ccccn4)c2)n(C)c(=O)n3C)cc1OC` [Example 29, N-(1,3-dimethyl-2-oxo-6-(3-(pyridin-2-ylmethoxy)phenoxy)-2,3-dihydro-1H-benzo[d]imidazol-5-yl)-3,4-dimethoxybenzenesulfonamide], the IC50 was 0.1 to 1 µM.

Turning to `Cn1cnc(S(=O)(=O)Nc2cc3c(cc2Oc2cccc(OCc4ccncc4)c2)n(C)c(=O)n3C)c1` [Example 30, N-(1,3-dimethyl-2-oxo-6-(3-(pyridin-4-ylmethoxy)phenoxy)-2,3-dihydro-1H-benzo[d]imidazol-5-yl)-1-methyl-1H-imidazole-4-sulfonamide], the half-maximal inhibitory concentration (IC50) fell in the range of 0.1 to 1 µM.

Turning to `COc1ccc(S(=O)(=O)Nc2cc3c(cc2Oc2cccc(OCc4ccncc4)c2)n(C)c(=O)n3C)cc1OC` [Example 31, N-(1,3-dimethyl-2-oxo-6-(3-(pyridin-4-ylmethoxy)phenoxy)-2,3-dihydro-1H-benzo[d]imidazol-5-yl)-3,4-dimethoxybenzenesulfonamide], the 50% inhibitory concentration (IC50) was 0.1 to 1 µM.

The record behind these values is patent publication US20160060260A1, “BROMODOMAIN INHIBITORS FOR TREATING DISEASE” (Board of Regents, The University of Texas System, priority 2014, published 2016).
